# Experiments:
# [1] = tested on: MCF7 cells; test: [3H]thymidine incorporation in MCF7 cells; assay type: cell-based, human; settings: 200 nM, serum 24 hours
# Description: (§1) Cell Culture and DNA Synthesis: T47D (ductal carcinoma) and MCF7 (adenocarcinoma) human breast cancer cell lines were obtained from the American Type Culture Collection. All cell lines were maintained according to vendors' recommendations. The cells were growth arrested by placing them in serum-free quiescence media and exposed to 10% serum-containing media as indicated. [^3H]Thymidine incorporation was assessed as described previously (Weiss, R. H., and Nuccitelli, R., J. Biol. Chem., 267: 5608-5613, 1992).
# (§2) Apoptotic cells will not incorporate thymidine into DNA during S phase, but [^3H]thymidine incorporation experiments will not distinguish between G1→S arrest and apoptosis. Serum-starved cells were transfected with 200 nM antisense p21 and control ODN, stimulated with serum-containing media, and examined for their ability to incorporate [^3H]thymidine into DNA. […] Antisense p21 attenuates [^3H]thymidine incorporation. MCF7 and T47D cells were grown to confluence, serum starved for 24 hours, and lipofected with antisense p21 (AS) or control (SC) ODN at the concentrations indicated (in nM). […] Serum was added for 24 hours, and the cells were incubated with [^3H]thymidine for the last 6 hours. DNA synthesis was assessed by [^3H]thymidine incorporation and is expressed as mean +SD of 3 wells/data point. *, P <0.05 compared with antisense p21 ODN transfection. […]
# [2] = tested on: T47D cells; test: [3H]thymidine incorporation in T47D cells; assay type: cell-based, human; settings: 200 nM, serum 24 hours
# Description: as §1, §2
# [3] = tested on: cyclin D1/cdk 4; test: Cyclin D1 immunoprecipitation / cdk 4 immunoblot in A10 VSM cells; assay type: cell-based, rat; settings: PDGF-BB 30 ng/ml, all times
# Description: Cells were transfected with p21^Waf1/Cip1 antisense (SEQ. ID NO.:1) or sense oligodeoxynucleotide (SEQ. ID NO.:2), allowed to grow overnight in serum-free media. After overnight incubation in serum-free medium, the cells were stimulated with PDGF-BB (30 ng/ml) for the times indicated. The cells were subsequently immunoprecipitated with either cyclin D1 or cyclin E and immunoblotted with cdk 4 or cdk 2, respectively.
# [4] = tested on: α-actin; test: alpha-actin level by Western blot in A431 cells; assay type: cell-based, human; settings: 200 nM oligodeoxynucleotide
# Description: Western blots: Cells were grown to confluence in 6 cm culture dishes and serum deprived. After transfection and or treatment with appropriate agonist, the cells were washed with phosphate-buffered saline and lysed in lysis buffer and the supernatant was Western blotted as described (Weiss and Nuccitelli, 1992 J. Biol. Chem., 267, p. 5608-5613).
# PMA is a potent inducer of p21^Waf1/Cip1 in a variety of different cell lines (Huang et al., 1995 Proc. Natl. Acad. Sci. US.A., 92, p. 4793-4797; Michieli et al., 1994 Cancer Res., 54, p. 3391-3395) and was employed to examine p21^Waf1/Cip1 levels after antisense transfection and confirm efficacy of translation to attenuate p21^Waf1/Cip1 levels. A431 cells were transfected with 200 nM antisense p21^Waf1/Cip1 (SEQ. ID NO.:1) or sense p21^Waf1/Cip1 oligodeoxynucleotide (SEQ. ID NO.:2). After overnight incubation in serum-free medium, the cells were stimulated with PMA (100 ng/ml) for the times indicated, lysed, and the lysates were Western blotted with p21^Waf1/Cip1 or α-actin antibody.
# [5] = tested on: A431 cells; test: [3H]thymidine incorporation (DNA synthesis) in A431 cells; assay type: cell-based, human
# Description: FIG. 9A-D are bar graphs showing Antisense p21^Waf1/Cip1 oligodeoxynucleotide has no significant effect DNA synthesis in PMA-inhibitable A431 cells, as described in Example II, infra. […] A431 cells were placed in serum-free medium overnight and then stimulated with (A) PDGF-BB (30 ng/ml), (B) 10% serum-containing medium, or (C) PDGF-BB or PMA (100 ng/ml) for another 8 hours before [^3H]-thymidine was added for overnight incubation. (D) A10 VSM cells were transfected with sense and antisense p21^Waf1/Cip1 oligonucleotides as above and treated similarly to (B). DNA synthesis was assessed by [^3H]-thymidine incorporation and is expressed as mean ±s.e.m. of three wells per data point. The absolute counts differ between experiments due to different confluency of the cells. The experiments shown are representative of two separate experiments.
# Cell culture and DNA synthesis: Cultures of A10 and A431 cells were obtained from American Type Culture Collection (Rockville Md), were maintained as described (Weiss et al. 1998, Am. J. Physiol. 274, C1521-C1529), and were used between passages 15 and 24 or 25 and 35, respectively. The cells were growth-arrested by placing them in serum-free quiescence medium, exposed to growth factors as indicated, and [^3H]thymidine incorporation assessed as previously described (Weiss and Nuccitelli, 1992, J. Biol. Chem. 267, 5608-5613).
# This A431 data is in contrast with that obtained in a variety of VSM cell lines, where cell growth was inhibited by similar oligodeoxynucleotide concentrations in cell stimulated with both PDGF-BB and serum (FIG. 9d).
# [6] = tested on: laminin; test: Laminin production and secretion (immunoblot of lysate and conditioned media); assay type: cell-based, rat; settings: VSM cells, 400 nM, TGF-β 0.1 to 10 ng/ml for 4 hours
# Description: Western blots: Cells were grown to confluence in 6 cm culture dishes and serum deprived. After transfection and/or treatment with appropriate agonist, conditioned medium was removed and saved and the cells were washed with phosphate-buffered saline and lysed in lysis buffer. Both supernatant and cell lysate were normalized to the lysate protein concentrations and Western blotted as described (Weiss, R. H.; et al. Am. J. Physiol. 274: C1521-C1529; 1998).
# The p21 influences on matrix protein secretion in VSM cells were determined. Levels of the matrix proteins laminin and fibronectin were examined in both TGF-β stimulated lysate and conditioned media of cells in which p21 expression had been attenuated. The cells were transfected with either antisense p21 (SEQ. ID NO.:1) (400 nM), or random sequence control (SEQ. ID NO.:3) (400 nM) oligodeoxynucleotide, and then stimulated with TGF-β at for 0.1 to 10 ng/ml for 4 hours. Conditioned media and cell lysate were collected, and both medium and lysate volumes were normalized for the protein content in total cell lysate to exclude any skewing of the data due to cell proliferation. The proteins were electrophoresed and immunoblotted with either fibronectin (after immunoprecipitation to eliminate extraneous bands which appeared in the absence of this procedure) or laminin antibody.
Substance,[3H]thymidine incorporation (DNA incorporation) [1],[3H]thymidine incorporation (DNA incorporation) [2],association of cyclin D1 and cdk 4 [3],levels of α-actin [4],DNA synthesis upon stimulation with PDGF or serum ([5]; 0 to 400 nM oligodeoxynucleotide),difference in DNA synthesis between sense and antisense ([5]; up to 800 nM),production and secretion of laminin [6]
"5′-ATC-CCC-AGC-CGG-TTC-TGA-CAT-3′ (antisense ATCCCCAGCCGGTTCTGACAT; listed as DNA, chemistry not fully specified) [antisense p21 ODN]",significant attenuation,significant attenuation,–,–,–,–,–
5′-GACATCACCAGGATCGGACAT-3′,–,–,marked decrease,not altered,no significant change,no difference,markedly reduced
